Measured values reported in ChEMBL document CHEMBL1201862, “PubChem BioAssay data set” (2004).
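Results reflect a 48-hour exposure of cells in 96-well plates to compound at five concentrations. The concentration for 50% growth inhibition is given as GI50.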 Calls of active or inactive are those of the source. No stated cut-off is given here; in the data, active = GI50 up to about 1.1 µM and inactive = higher.

Experiments:
Test in all cases: DTP human tumour cell line panel, 48 h
[1] = tested on: COLO 205
[2] = tested on: EKVX
[3] = tested on: HCT-15
[4] = tested on: HOP-62
[5] = tested on: KM12
[6] = tested on: Malme-3M
[7] = tested on: NCI-H460
[8] = tested on: NCI-H522
[9] = tested on: OVCAR-4
[10] = tested on: OVCAR-5
[11] = tested on: RXF 393
[12] = tested on: SF-295
[13] = tested on: SF-539
[14] = tested on: SK-MEL-5
[15] = tested on: SN12C
[16] = tested on: SNB-19
[17] = tested on: SNB-75
[18] = tested on: UACC-257
[19] = tested on: A549

Structure (SMILES) | GI50 [1] | GI50 [2] | GI50 [3] [µM] | GI50 [4] | GI50 [5] | GI50 [6] | GI50 [7] | GI50 [8] | GI50 [9] | GI50 [10] | GI50 [11] | GI50 [12] | GI50 [13] | GI50 [14] | GI50 [15] | GI50 [16] | GI50 [17] | GI50 [18] | GI50 [19]
O=C(O)/C=C/c1ccncc1 | > 100 µM (inactive) | > 100 µM (inactive) | 14.5 | 0.223 µM (active) | > 100 µM (inactive) | > 100 µM (inactive) | > 100 µM (inactive) | > 100 µM (inactive) | > 100 µM (inactive) | > 100 µM (inactive) | > 100 µM (inactive) | > 100 µM (inactive) | > 100 µM (inactive) | > 100 µM (inactive) | > 100 µM (inactive) | > 100 µM (inactive) | > 100 µM (inactive) | > 100 µM (inactive) | 
CC1OC=CC(=O)C1O (centres undefined) |  | > 100 µM (inactive) | > 100 | > 100 µM (inactive) | > 100 µM (inactive) | > 100 µM (inactive) | > 100 µM (inactive) | 50.4 µM (inactive) | > 100 µM (inactive) | > 100 µM (inactive) | > 100 µM (inactive) | > 100 µM (inactive) | > 100 µM (inactive) | > 100 µM (inactive) | > 100 µM (inactive) |  | > 100 µM (inactive) | > 100 µM (inactive) | > 100 µM (inactive)
CCOC(=O)C1=C(Nc2ccc(Cl)cc2Cl)OC/C1=N\NS(=O)(=O)c1ccc(C)cc1 | > 100 µM (inactive) | 91.6 µM (inactive) | > 100 | > 100 µM (inactive) | > 100 µM (inactive) | > 100 µM (inactive) | > 100 µM (inactive) | > 100 µM (inactive) | > 100 µM (inactive) | > 100 µM (inactive) | > 100 µM (inactive) | > 100 µM (inactive) | > 100 µM (inactive) | > 100 µM (inactive) | > 100 µM (inactive) | > 100 µM (inactive) | > 100 µM (inactive) | > 100 µM (inactive) | > 100 µM (inactive)
N#CCCc1nc2ccc(Br)cc2c(=O)n1-c1ccc(O)c([N+](=O)[O-])c1 | 22.9 µM (inactive) | 25.5 µM (inactive) | 18.8 | 36.5 µM (inactive) | 18.5 µM (inactive) | 17.3 µM (inactive) | 27.5 µM (inactive) | 15.8 µM (inactive) | 20.5 µM (inactive) | 46.1 µM (inactive) | 18.1 µM (inactive) | 20.1 µM (inactive) | 18.8 µM (inactive) | 18.4 µM (inactive) | 19 µM (inactive) |  | 26.7 µM (inactive) | 30.1 µM (inactive) | 55 µM (inactive)
CS/C(=N\C(=S)N(C)C)N(c1ccccc1)c1nc(N(C)C)s[s+]1 | 2 µM (inactive) | 16 µM (inactive) | 19.8 | 19.5 µM (inactive) | 3.65 µM (inactive) | 2.34 µM (inactive) | 2.91 µM (inactive) | 1.47 µM (inactive) | 12.2 µM (inactive) |  | 14 µM (inactive) | 16.7 µM (inactive) | 7.67 µM (inactive) |  | 13.1 µM (inactive) | 32.6 µM (inactive) | 3.18 µM (inactive) | 3.95 µM (inactive) | 3.84 µM (inactive)
CC1(c2cc3c(cc2Br)OCO3)SCCCS1 | 51.4 µM (inactive) | 77.1 µM (inactive) | 38.7 | 31.1 µM (inactive) | 51.4 µM (inactive) |  | 36.2 µM (inactive) | 1.84 µM (inactive) | 36.3 µM (inactive) | 42.3 µM (inactive) | 18.3 µM (inactive) | 49.1 µM (inactive) | 36.5 µM (inactive) | 20.4 µM (inactive) | 39.3 µM (inactive) | 47.4 µM (inactive) | 40.6 µM (inactive) |  | 34.5 µM (inactive)
CCOC1=CP(=O)(OCC)CC(C)=C1Cl (centres undefined) | 7.21 µM (inactive) | > 100 µM (inactive) |  | > 100 µM (inactive) | > 100 µM (inactive) | > 100 µM (inactive) | > 100 µM (inactive) | > 100 µM (inactive) |  | > 100 µM (inactive) | > 10 µM (inactive) | > 100 µM (inactive) | > 100 µM (inactive) | > 100 µM (inactive) | > 100 µM (inactive) | > 100 µM (inactive) | 30.4 µM (inactive) | > 100 µM (inactive) | > 100 µM (inactive)
CN(C)/N=C(\CCN1CCCC1)CC(c1ccccc1)c1c(O)c2ccccc2oc1=O (centres undefined) | > 100 µM (inactive) | > 100 µM (inactive) |  | > 100 µM (inactive) |  | > 100 µM (inactive) |  | > 100 µM (inactive) | > 100 µM (inactive) | > 100 µM (inactive) | > 100 µM (inactive) | > 100 µM (inactive) | > 100 µM (inactive) |  | > 100 µM (inactive) | > 100 µM (inactive) | 58.2 µM (inactive) | > 100 µM (inactive) | > 100 µM (inactive)
N#C/N=C(/N)NCO | > 42.1 µM (inactive) | > 100 µM (inactive) | > 40 | > 100 µM (inactive) | > 40 µM (inactive) | > 100 µM (inactive) | > 78 µM (inactive) | > 100 µM (inactive) | > 100 µM (inactive) | > 100 µM (inactive) | 16.5 µM (inactive) | > 100 µM (inactive) | > 100 µM (inactive) | > 100 µM (inactive) | > 100 µM (inactive) | > 100 µM (inactive) | > 100 µM (inactive) | > 100 µM (inactive) | > 57.4 µM (inactive)
Cc1cccc(C(C)(C)C)c1NC(=O)CCc1nnc(S)[nH]1 | > 100 µM (inactive) |  | > 100 | > 100 µM (inactive) | > 100 µM (inactive) | > 100 µM (inactive) | > 100 µM (inactive) | > 100 µM (inactive) | > 100 µM (inactive) | > 100 µM (inactive) | > 100 µM (inactive) | > 100 µM (inactive) | > 100 µM (inactive) | > 100 µM (inactive) | > 100 µM (inactive) | > 100 µM (inactive) | > 100 µM (inactive) | > 100 µM (inactive) | > 100 µM (inactive)
COC(=O)/C(C#N)=C1\NN=NN1CCCc1ccccc1 | > 100 µM (inactive) | > 100 µM (inactive) | > 100 |  | > 100 µM (inactive) | > 100 µM (inactive) | > 100 µM (inactive) | 13.5 µM (inactive) |  |  | > 100 µM (inactive) | > 100 µM (inactive) | > 100 µM (inactive) | > 100 µM (inactive) | > 100 µM (inactive) | > 100 µM (inactive) | > 100 µM (inactive) | > 100 µM (inactive) | > 100 µM (inactive)
COC1/C(=C\c2ccccc2I)c2ccccc2N1C(C)=O (centres undefined) | 17.6 µM (inactive) | 15.1 µM (inactive) | 14.2 | 17.2 µM (inactive) | 15.6 µM (inactive) |  | 17.6 µM (inactive) |  | 16.2 µM (inactive) |  | 5.69 µM (inactive) | 14.3 µM (inactive) | 16.4 µM (inactive) |  | 15.2 µM (inactive) | 22.6 µM (inactive) | 14.3 µM (inactive) | 18.3 µM (inactive) | 16 µM (inactive)
O=c1nc(-c2ccccc2)scc1-c1ccccc1 | > 100 µM (inactive) | > 100 µM (inactive) | > 100 | 44.7 µM (inactive) | > 100 µM (inactive) | > 100 µM (inactive) | > 100 µM (inactive) | 21 µM (inactive) | > 100 µM (inactive) |  | 74.5 µM (inactive) | > 100 µM (inactive) | > 100 µM (inactive) | > 100 µM (inactive) | > 100 µM (inactive) | 59.7 µM (inactive) | > 100 µM (inactive) | > 100 µM (inactive) | > 100 µM (inactive)
CC(NC1CCCC[C@@H]1O)c1ccccc1 (some centres undefined) | > 100 µM (inactive) | > 100 µM (inactive) | > 100 | > 100 µM (inactive) | > 100 µM (inactive) | > 100 µM (inactive) | > 100 µM (inactive) |  | > 100 µM (inactive) | > 100 µM (inactive) | > 100 µM (inactive) | > 100 µM (inactive) |  | > 100 µM (inactive) | > 100 µM (inactive) | > 100 µM (inactive) | > 100 µM (inactive) | > 100 µM (inactive) | > 100 µM (inactive)
COC(=O)C1CCC[C@H]2C(CO)=C(C)C(=O)[C@@H]12 (some centres undefined) | > 100 µM (inactive) | > 100 µM (inactive) | > 100 | > 100 µM (inactive) | > 100 µM (inactive) | > 100 µM (inactive) | > 100 µM (inactive) | > 100 µM (inactive) | > 100 µM (inactive) | > 100 µM (inactive) | > 100 µM (inactive) | > 100 µM (inactive) | > 100 µM (inactive) | > 100 µM (inactive) | > 100 µM (inactive) | > 100 µM (inactive) | > 100 µM (inactive) | > 100 µM (inactive) | > 100 µM (inactive)
Cc1nc2c(o1)/C(=N\c1ccccc1)c1ccccc1/C2=N/c1ccccc1 | 29.1 µM (inactive) | 79.1 µM (inactive) | 16 | > 100 µM (inactive) | 85.5 µM (inactive) | 56.6 µM (inactive) | 39.4 µM (inactive) | 33 µM (inactive) | 58.7 µM (inactive) | > 100 µM (inactive) | > 100 µM (inactive) | > 100 µM (inactive) | > 100 µM (inactive) | > 100 µM (inactive) | 63.4 µM (inactive) | > 100 µM (inactive) | 61.8 µM (inactive) | > 100 µM (inactive) | > 100 µM (inactive)
